The experiment deals with T1, DLL3 (Homo sapiens, UniProt Q9NYJ7).
T1 sequence (Q9NYJ7 27-618): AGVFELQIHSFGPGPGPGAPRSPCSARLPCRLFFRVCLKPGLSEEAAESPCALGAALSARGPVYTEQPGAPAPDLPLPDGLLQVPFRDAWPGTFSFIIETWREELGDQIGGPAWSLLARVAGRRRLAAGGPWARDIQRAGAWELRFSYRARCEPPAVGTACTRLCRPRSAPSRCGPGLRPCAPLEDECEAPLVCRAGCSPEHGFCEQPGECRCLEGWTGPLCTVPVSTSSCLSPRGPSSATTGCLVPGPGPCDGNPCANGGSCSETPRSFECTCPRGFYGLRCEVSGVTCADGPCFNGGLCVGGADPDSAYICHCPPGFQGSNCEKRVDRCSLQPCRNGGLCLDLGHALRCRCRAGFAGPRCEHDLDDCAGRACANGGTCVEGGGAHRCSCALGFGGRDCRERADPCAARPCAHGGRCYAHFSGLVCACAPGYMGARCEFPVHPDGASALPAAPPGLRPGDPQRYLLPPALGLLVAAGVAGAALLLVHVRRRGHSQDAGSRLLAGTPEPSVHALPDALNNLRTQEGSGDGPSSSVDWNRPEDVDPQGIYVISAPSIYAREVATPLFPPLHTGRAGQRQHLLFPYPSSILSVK
The experiment is described as follows: SPR KD, biotinylated human DLL3 on streptavidin chip (Table 8). The arrangement: biotin (biotinylated). The settings on record: biotinylated human DLL3 on streptavidin sensor chip, 25° C., 1:1 binding model; read-out: SPR KD. From the text:
Biotinylated target ligand human DLL3 was immobilized on a streptavidin sensor chip. A reference surface was set up for nonspecific binding and refractive index changes. […] Sensorgram curves were fitted with 1:1 binding model, and affinity and kinetic parameters were obtained using Biacore Insight evaluation 4.0. software.

*1 amine or outer side, *2 acyl side, *3 side chain or, on linkers, in order; H or OH if unused. Where a SMILES comes first, the peptide text is derived from it. Bridges are numbered along the chain shown (N, C = ends). Side-chain parts run from the residue outwards. [ ]: non-standard residue; d: D form. The star is where a group is joined. X7 = O=C(O)CN1CCN(CC(=O)O)CCN(CC(=O)N[C@H]2CC[C@H](CC(=O)*)CC2)CCN(CC(=O)O)CC1; Ala(1-CH2CO2H-4-piperidyl) = N[C@@H](CC1CCN(CC(=O)O)CC1)C(=O)O; Ala(piperidin-4-yl) = O=C([C@H](CC1CCN([*:3])CC1)N[*:1])[*:2]; DOTA = O=C(O)CN1CCN(CC(=O)O)CCN(CC(=O)*)CCN(CC(=O)O)CC1; Me3N+(CH2)2O(CH2)2O(CH2)2CO = C[N+](C)(C)CCOCCOCCC(=O)*; X3 = O=C([C@H](CC1CCN(CC(=O)[*:3])CC1)N[*:1])[*:2]; 2Nal = N[C@@H](Cc1ccc2ccccc2c1)C(=O)O; NMetBuAla = CN[C@@H](CC(C)(C)C)C(=O)O; Ethylenediamine = C(CN[*:2])N[*:1]; tBuAla = CC(C)(C)C[C@H](N)C(=O)O; αMeP = C[C@@]1(C(=O)O)CCCN1; Nle = CCCC[C@H](N)C(=O)O; Nva = CCC[C@H](N)C(=O)O; CH2 = C([*:1])[*:2]

From patent publication US20250049970A1, “DLL3 TARGETING PEPTIDES AND CONSTRUCTS THEREOF” (MARIANA ONCOLOGY INC., priority 2023, published 2025) come the findings set out here.

One may read the Kd as the equilibrium constant for the complex coming apart. For `CC(=O)N[C@@H](Cc1c[nH]c2ccccc12)C(=O)N[C@H](C(=O)N[C@@H](CC(C)(C)C)C(=O)N[C@H]1CSCSC[C@@H](C(=O)N[C@@H](Cc2c[nH]c3ccccc23)C(=O)N2CCC[C@H]2C(N)=O)NC(=O)[C@H](CC(=O)O)NC(=O)[C@H](CCCCNC(=O)C[C@H]2CC[C@H](NC(=O)CN3CCN(CC(=O)O)CCN(CC(=O)O)CCN(CC(=O)O)CC3)CC2)NC(=O)[C@H](Cc2ccc3ccccc3c2)NC(=O)[C@H](CC(N)=O)NC(=O)[C@H](CC2CCNCC2)NC1=O)[C@@H](C)O` [compound 434, Ac-W-T-(t-Bu-Ala)-C(3)-[3-(4-piperidinyl)-Ala]-N-(2Nal)-Lys(Chx-DOTA)-D-C(3)-W-P-NH2] (Ac-WT[tBuAla]C[Ala(piperidin-4-yl)]N[2Nal]K(X7)DCWP-NH2; linker 4-10 via CH2), the Kd was under 1 nM. For the compound `CC(=O)N[C@@H](Cc1c[nH]c2ccccc12)C(=O)N[C@H](C(=O)N[C@@H](CC(C)(C)C)C(=O)N[C@H]1CSCSC[C@@H](C(=O)N[C@@H](Cc2c[nH]c3ccccc23)C(=O)N2CCC[C@@]2(C)C(=O)O)NC(=O)[C@H](CC(=O)O)NC(=O)[C@H](CCCCNC(=O)CN2CCN(CC(=O)O)CCN(CC(=O)O)CCN(CC(=O)O)CC2)NC(=O)[C@H](Cc2ccc3ccccc3c2)NC(=O)[C@H](CC(N)=O)NC(=O)[C@H](CC2CCNCC2)NC1=O)[C@@H](C)O` [compound 436, Ac-W-T-(t-Bu-Ala)-C(1)-[3-(4-piperidinyl)-Ala]-N-(2Nal)-Lys(DOTA)-D-C(1)-W-(aMe-P)-COOH] (Ac-WT[tBuAla]C[Ala(piperidin-4-yl)]N[2Nal]K(DOTA)DCW[αMeP]-OH; linker 4-10 via CH2), the Kd is under 1 nM.

For `CC(=O)NCCCC[C@@H](NC(=O)[C@@H]1CCCN1C(=O)[C@H](Cc1c[nH]c2ccccc12)NC(=O)[C@@H]1CSCSC[C@H](NC(=O)[C@H](CC(C)(C)C)NC(=O)[C@@H](NC(=O)[C@H](Cc2c[nH]c3ccccc23)NC(C)=O)[C@@H](C)O)C(=O)N[C@@H](CC2CCNCC2)C(=O)N[C@@H](CC(N)=O)C(=O)N[C@@H](Cc2ccc3ccccc3c2)C(=O)N[C@@H](CCCCNC(=O)CN2CCN(CC(=O)O)CCN(CC(=O)O)CCN(CC(=O)O)CC2)C(=O)N[C@@H](CC(=O)O)C(=O)N1)C(N)=O` [compound 438, Ac-W-T-(t-Bu-Ala)-C(1)-[3-(4-piperidinyl)-Ala]-N-(2Nal)-Lys(DOTA)-D-C(1)-W-P-[D-Lys(Ac)]-CONH2] (Ac-WT[tBuAla]C[Ala(piperidin-4-yl)]N[2Nal]K(DOTA)DCWP[dK](Ac)-NH2; linker 4-10 via CH2), the dissociation constant (Kd) is under 1 nM. Take `CC(=O)NCCCC[C@@H](NC(=O)[C@@H]1CCCN1C(=O)[C@H](Cc1c[nH]c2ccccc12)NC(=O)[C@@H]1CSCSC[C@H](NC(=O)[C@H](CC(C)(C)C)NC(=O)[C@@H](NC(=O)[C@H](Cc2c[nH]c3ccccc23)NC(C)=O)[C@@H](C)O)C(=O)N[C@@H](CC2CCNCC2)C(=O)N[C@@H](CC(N)=O)C(=O)N[C@@H](Cc2ccc3ccccc3c2)C(=O)N[C@@H](CCCCNC(=O)CN2CCN(CC(=O)O)CCN(CC(=O)O)CCN(CC(=O)O)CC2)C(=O)N[C@@H](CC(=O)O)C(=O)N1)C(=O)O` [compound 439, Ac-W-T-(t-Bu-Ala)-C(1)-[3-(4-piperidinyl)-Ala]-N-(2Nal)-Lys(DOTA)-D-C(1)-W-P-[D-Lys(Ac)]-COOH] (Ac-WT[tBuAla]C[Ala(piperidin-4-yl)]N[2Nal]K(DOTA)DCWP[dK](Ac)-OH; linker 4-10 via CH2): the Kd is under 1 nM. Then `CCC[C@H](NC(C)=O)C(=O)N[C@@H](Cc1c[nH]c2ccccc12)C(=O)N[C@H](C(=O)N[C@H](C(=O)N[C@H]1CSSC[C@@H](C(=O)N[C@@H](Cc2c[nH]c3ccccc23)C(=O)N2CCC[C@H]2C(N)=O)NC(=O)[C@H](CC(=O)O)NC(=O)[C@H](Cc2cnc[nH]2)NC(=O)[C@H](Cc2c[nH]c3ccccc23)NC(=O)[C@H](CC(N)=O)NC(=O)[C@H](CC(N)=O)NC1=O)[C@@H](C)CC)[C@@H](C)O` [compound 440, Ac-(L-Nva)-W-T-I-C(3)-N-N-W-H-D-C(3)-W-P-CONH2] (Ac-[Nva]WTICNNWHDCWP-NH2; disulfide 5-11), with 10 to 100 nM; and `CCCC[C@H](NC(C)=O)C(=O)N[C@@H](Cc1c[nH]c2ccccc12)C(=O)N[C@H](C(=O)N[C@H](C(=O)N[C@H]1CSSC[C@@H](C(=O)N[C@@H](Cc2c[nH]c3ccccc23)C(=O)N2CCC[C@H]2C(N)=O)NC(=O)[C@H](CC(=O)O)NC(=O)[C@H](Cc2cnc[nH]2)NC(=O)[C@H](Cc2c[nH]c3ccccc23)NC(=O)[C@H](CC(N)=O)NC(=O)[C@H](CC(N)=O)NC1=O)[C@@H](C)CC)[C@@H](C)O` [compound 441, Ac-(L-Nle)-W-T-I-C(3)-N-N-W-H-D-C(3)-W-P-CONH2] (Ac-[Nle]WTICNNWHDCWP-NH2; disulfide 5-11), with 10 to 100 nM. Regarding `CC(=O)N[C@@H](Cc1c[nH]c2ccccc12)C(=O)N[C@H](C(=O)N(C)[C@@H](CC(C)(C)C)C(=O)N[C@H]1CSCSC[C@@H](C(=O)N[C@@H](Cc2c[nH]c3ccccc23)C(=O)N2CCC[C@H]2C(N)=O)NC(=O)[C@H](CC(=O)O)NC(=O)[C@H](CCCCNC(=O)CN2CCN(CC(=O)O)CCN(CC(=O)O)CCN(CC(=O)O)CC2)NC(=O)[C@H](Cc2ccc3ccccc3c2)NC(=O)[C@H](CC(N)=O)NC(=O)[C@H](CC2CCN(CC(=O)O)CC2)NC1=O)[C@@H](C)O` [compound 447] (Ac-WT[NMetBuAla]C[Ala(1-CH2CO2H-4-piperidyl)]N[2Nal]K(DOTA)DCWP-NH2; linker 4-10 via CH2), the dissociation constant (Kd) is under 1 nM. As to `CC(=O)N[C@@H](Cc1c[nH]c2ccccc12)C(=O)N[C@H](C(=O)N(C)[C@@H](CC(C)(C)C)C(=O)N[C@H]1CSCSC[C@@H](C(=O)N[C@@H](Cc2c[nH]c3ccccc23)C(=O)N2CCC[C@H]2C(N)=O)NC(=O)[C@H](CC(=O)O)NC(=O)[C@H](CCCCNC(=O)CN2CCN(CC(=O)O)CCN(CC(=O)O)CCN(CC(=O)O)CC2)NC(=O)[C@H](Cc2ccc3ccccc3c2)NC(=O)[C@H](CC(N)=O)NC(=O)[C@H](CC2CCN(C(=O)CCOCCOCC[N+](C)(C)C)CC2)NC1=O)[C@@H](C)O` [compound 448] (Ac-WT[NMetBuAla]C[Ala(piperidin-4-yl)](Me3N+(CH2)2O(CH2)2O(CH2)2CO)N[2Nal]K(DOTA)DCWP-NH2; linker 4-10 via CH2), the Kd is under 1 nM. `CC(=O)N[C@@H](Cc1c[nH]c2ccccc12)C(=O)N[C@H](C(=O)N(C)[C@@H](CC(C)(C)C)C(=O)N[C@H]1CSCSC[C@@H](C(=O)N[C@@H](Cc2c[nH]c3ccccc23)C(=O)N2CCC[C@H]2C(N)=O)NC(=O)[C@H](CC(=O)O)NC(=O)[C@H](CCCCNC(=O)CN2CCN(CC(=O)O)CCN(CC(=O)O)CCN(CC(=O)O)CC2)NC(=O)[C@H](Cc2ccc3ccccc3c2)NC(=O)[C@H](CC(N)=O)NC(=O)[C@H](CC2CCN(CC(=O)NCCNC(=O)CN3CCN(CC(=O)O)CCN(CC(=O)O)CCN(CC(=O)O)CC3)CC2)NC1=O)[C@@H](C)O` [compound 449] (Ac-WT[NMetBuAla]C[X3]([Ethylenediamine-DOTA])N[2Nal]K(DOTA)DCWP-NH2; linker 4-10 via CH2): the Kd was under 1 nM.

Turning to `CCCCCCCCCCCCCCCC(=O)N[C@@H](CCC(=O)NCCOCCOCCOCCOCCOCCOCCOCCOCCOCCOCCOCCOCCOCCOCCOCCOCCOCCOCCOCCOCCOCCOCCOCCOCCC(=O)NCCCC[C@H](NC(=O)CN1CCC(C[C@@H]2NC(=O)[C@@H](NC(=O)[C@H](CC(C)(C)C)N(C)C(=O)[C@@H](NC(=O)[C@H](Cc3c[nH]c4ccccc34)NC(C)=O)[C@@H](C)O)CSCSC[C@@H](C(=O)N[C@@H](Cc3c[nH]c4ccccc34)C(=O)N3CCC[C@H]3C(N)=O)NC(=O)[C@H](CC(=O)O)NC(=O)[C@H](CCCCNC(=O)CN3CCN(CC(=O)O)CCN(CC(=O)O)CCN(CC(=O)O)CC3)NC(=O)[C@H](Cc3ccc4ccccc4c3)NC(=O)[C@H](CC(N)=O)NC2=O)CC1)C(=O)O)C(=O)O` [compound 450, Ac-W-T-(NMe-tBuAla)-C(1)-[PipA(acetic-Lys-PEG24-gE-palmitoyl)]-N-(2Nal)-Lys(DOTA)-D-C(1)-W-P-CONH2], the dissociation constant Kd was under 1 nM.
